Laboratory results reported in article PMC6957492, “Assembly and substrate recognition of curli biogenesis system” (Nature Communications, 2020).
“Also recorded” adds a separate entry of the source.

Legend:
CsgE = assay: Pulldown assay of different parts of CsgA with CsgE; type: binding, E. coli; conditions: C-terminal MBP tag on CsgA parts
[1] = system: PapD2 and CpxP passage through CsgG; conditions: cited from earlier work
Text: Tyr51, Asn55, and Phe56 residues of CsgG were reported to constitute three stacked concentric rings to form a pore structure in the nonameric channel, which was essential to limit the passage of the folded proteins[22] (Fig. 2a).

CsgB [2] = assay: Pulldown assay of CsgB by CsgF domains; type: binding, E. coli; conditions: CsgB C-terminal MBP tag, CsgF parts N-terminal MBP tag; western blot
CsgG [3] = assay: Pulldown assay of CsgF variants/domains with CsgG as bait; type: binding, E. coli K12; conditions: CsgF variants with C-terminal MBP tag
Method: The procedure of CsgG purification was similar to that of the CsgFG complex. […] After incubation for 30 min, the mixture was loaded into a Strep-Tactin column (IBA). […] Individual CsgG and CsgF variants were purified as input by Strep-Tactin and Ni-NTA, respectively. The samples were analyzed by 15% SDS–PAGE and stained with Coomassie blue.
CsgFGBD-MBP mutant variants were purified as soluble protein by Ni-NTA. CsgG were purified as membrane protein by Strep-Tactin and substituted by amphipole A8-35. CsgFGBD-MBP mutant variants (36 μM) and CsgG nonamer (2 μM) were mixed together at 4 °C for 2 h and then incubated with equal volume of Strep-Tactin beads at 4 °C for 1 h.
Supplementary Figure 5. Interaction mode between CsgFN and CsgG. a, Interaction of CsgFN and CsgG. […] Two adjacent subunits of CsgG are shown in magenta and cyan, respectively. b, Hydrogen bonds and electrostatic interaction between CsgFN and CsgG. Hydrogen bonds are shown as red […]
aromatic residues in CsgG. d, The hydrophobic interaction between CsgFN and CsgG. e, Pulldown assay between the CsgF(C-terminal MBP tag) mutant variants and CsgG. […] Source data are provided as a Source Data file.
(§1) (1 picture or pasted object on this page, not shown here)

CsgA [4] = conditions: CsgF and CsgB as baits (N-terminal MBP tag), CsgA C-terminal MBP tag
Method: The cells were induced with 0.5 mM IPTG for 4 h at 37 °C. […] After incubation for 20 min, the mixture was loaded to a Strep-Tactin column (IBA). The beads were washed four times with a buffer having 25 mM Tris-HCl at pH 8.0, 150 mM NaCl, and eluted in a buffer having 25 mM Tris-HCl at pH 8.0, 150 mM NaCl, and 2.5 mM desthiobiotin. […] The samples were analyzed by 15% SDS–PAGE and detected by western blotting.

CsgB [5] = conditions: cited from earlier work
Text: CsgFC was flexible, and was observed as fuzzy densities on the extracellular side of the CsgFG channel (Fig. 1c and Supplementary Fig. 1d), which should be responsible for interacting with CsgB. To further clarify CsgF function, we first performed a pulldown assay using CsgG as a bait. […] Therefore, CsgF ...

CsgG [6] = assay: Pulldown assay of CsgE with CsgG; type: binding, E. coli; conditions: western blot
Method: The CsgE and CsgG were transformed in E. coli BL21 (DE3) strain. […] After incubation for 30 min, CsgE alone and CsgE-CsgG mixture were loaded to Strep-Tactin columns (IBA), respectively. The beads were washed for four times with a buffer having 25 mM Tris pH 8.0, 150 mM NaCl and 0.02% DDM and then eluted by an elution buffer (25 mM Tris pH 8.0, 150 mM NaCl, 0.02% DDM and 25 mM desthiobiotin). […] The samples were analyzed using 15% SDS–PAGE and detected using western blotting.

CsgG nonamer = molecular target: T1, CsgG nonamer (Escherichia coli, UniProt P0AEA2); type: binding, E. coli K12; conditions: given in reply to Reviewer #1
T1 construct: made in house; host or cells: E. coli BL21 (DE3)
T1 sequence (P0AEA2 whole entry, looked up): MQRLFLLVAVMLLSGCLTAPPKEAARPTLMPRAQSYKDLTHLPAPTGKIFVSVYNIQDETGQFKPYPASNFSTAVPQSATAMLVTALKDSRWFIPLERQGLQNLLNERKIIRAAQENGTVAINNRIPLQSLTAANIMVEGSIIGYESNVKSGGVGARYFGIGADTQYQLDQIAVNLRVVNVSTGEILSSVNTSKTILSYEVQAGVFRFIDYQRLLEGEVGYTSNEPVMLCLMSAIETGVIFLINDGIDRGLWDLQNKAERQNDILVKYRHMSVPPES
Text: as §1
are provided as a Source Data file.

CsgA [7] = conditions: cited from earlier work

Molecule: CsgAR1-5: five C-terminal repeating units of CsgA
- interaction of CsgA part with CsgE in pulldown (CsgE): CsgE bound to CsgAR1-5

Molecule: CsgF: soluble accessory factor of the curli secretion system
- leakage of PapD2 and CpxP in the presence of CsgF [1]: considerably reduced leakage
- pulldown of CsgB (CsgB [2]): full-length CsgF and CsgFC could
- CsgF-CsgG interaction in pulldown (CsgG [3]): CsgG can pulldown both the full-length CsgF and CsgFN
- interaction with CsgA in pulldown (CsgA [4]): did not directly interact with CsgA
- binding to CsgB (CsgB [5]): can also bind to CsgB

B1: CsgE: soluble accessory factor that binds CsgG (protein)
chain: VEVEVPGLLTDHTVSSIGHDFYRAFSDKWESDYTGNLTINERPSARWGSWITITVNQDVIFQTFLFPLKRDFEKTVVFALIQTEEALNRRQINQALLSTGDLAHDEF
modifications: left off: His tag (from the Ni-NTA purification of the input), end not stated, state not stated
- interaction of CsgE with CsgG in pulldown (CsgG [6]): CsgG could pull-down CsgE; also recorded: interacts with the CsgG channel
- CsgE-CsgG ITC interaction strength (in words) (CsgG nonamer): mM level
- inhibition of CsgA self-assembly into amyloid fibers (CsgA [7]): inhibit self-assembly of CsgA into amyloid fibers
